Measured values from the NIST ThermoML archive (doi:10.1016/j.jct.2014.10.015).
Numbers after ± are expanded uncertainties.

Assay: mn = molality of the nth substance listed, in mol/kg
Settings: 101.3 kPa, Liquid, Vibrating tube method

O=c1cc[nH]c(=O)[nH]1 [2,4(1H,3H)-pyrimidinedione] + O gave a mass density (288.15 K, m1 = 0.00553) of 999.354 ± 0.088 kg/m3, a mass density (288.15 K, m1 = 0.01162) of 999.599 ± 0.088 kg/m3 and a mass density (288.15 K, m1 = 0.01509) of 999.736 ± 0.088 kg/m3. The mass density (288.15 K, m1 = 0.01985) was 999.924 ± 0.087 kg/m3, the mass density (288.15 K, m1 = 0.02578) was 1000.15 ± 0.088 kg/m3 and the mass density (288.15 K, m1 = 0.03026) was 1000.33 ± 0.088 kg/m3. The mass density (298.15 K, m1 = 0.00553) was 997.267 ± 0.089 kg/m3, the mass density (298.15 K, m1 = 0.00878) was 997.396 ± 0.089 kg/m3 and the mass density (298.15 K, m1 = 0.01162) was 997.507 ± 0.09 kg/m3. For the same molecule, the mass density (298.15 K, m1 = 0.01202) was 997.522 ± 0.09 kg/m3, the mass density (298.15 K, m1 = 0.01509) was 997.643 ± 0.088 kg/m3 and the mass density (298.15 K, m1 = 0.01724) was 997.727 ± 0.089 kg/m3. The mass density (298.15 K, m1 = 0.01985) was 997.828 ± 0.088 kg/m3, the mass density (298.15 K, m1 = 0.02348) was 997.97 ± 0.089 kg/m3 and the mass density (298.15 K, m1 = 0.02387) was 997.985 ± 0.089 kg/m3. The mass density (298.15 K, m1 = 0.02487) was 998.023 ± 0.088 kg/m3, the mass density (298.15 K, m1 = 0.02578) was 998.059 ± 0.089 kg/m3 and the mass density (298.15 K, m1 = 0.03026) was 998.232 ± 0.088 kg/m3. The mass density (308.15 K, m1 = 0.00553) was 994.275 ± 0.09 kg/m3, the mass density (308.15 K, m1 = 0.01162) was 994.508 ± 0.09 kg/m3 and the mass density (308.15 K, m1 = 0.01509) was 994.639 ± 0.09 kg/m3. For the same molecule, the mass density (308.15 K, m1 = 0.01985) was 994.818 ± 0.09 kg/m3, the mass density (308.15 K, m1 = 0.02578) was 995.038 ± 0.09 kg/m3 and the mass density (308.15 K, m1 = 0.03026) was 995.205 ± 0.09 kg/m3. The mass density (318.15 K, m1 = 0.00553) was 990.452 ± 0.092 kg/m3, the mass density (318.15 K, m1 = 0.01162) was 990.68 ± 0.092 kg/m3 and the mass density (318.15 K, m1 = 0.01509) was 990.808 ± 0.091 kg/m3. The mass density (318.15 K, m1 = 0.01985) was 990.984 ± 0.091 kg/m3, the mass density (318.15 K, m1 = 0.02578) was 991.203 ± 0.091 kg/m3 and the mass density (318.15 K, m1 = 0.03026) was 991.367 ± 0.091 kg/m3.
Nc1cc[nH]c(=O)n1 [4-amino-2-hydroxypyrimidine] + O gave a mass density (288.15 K, m1 = 0.00616) of 999.374 ± 0.088 kg/m3, a mass density (288.15 K, m1 = 0.01095) of 999.56 ± 0.088 kg/m3 and a mass density (288.15 K, m1 = 0.01633) of 999.767 ± 0.088 kg/m3. For the same molecule, the mass density (288.15 K, m1 = 0.01961) was 999.894 ± 0.088 kg/m3, the mass density (288.15 K, m1 = 0.02682) was 1000.17 ± 0.088 kg/m3 and the mass density (288.15 K, m1 = 0.03302) was 1000.4 ± 0.088 kg/m3. The mass density (298.15 K, m1 = 0.00616) was 997.282 ± 0.089 kg/m3, the mass density (298.15 K, m1 = 0.01095) was 997.461 ± 0.089 kg/m3 and the mass density (298.15 K, m1 = 0.01278) was 997.529 ± 0.089 kg/m3. The mass density (298.15 K, m1 = 0.01633) was 997.66 ± 0.088 kg/m3, the mass density (298.15 K, m1 = 0.01855) was 997.743 ± 0.089 kg/m3 and the mass density (298.15 K, m1 = 0.01892) was 997.756 ± 0.089 kg/m3. It also gave a mass density (298.15 K, m1 = 0.01961) of 997.779 ± 0.089 kg/m3, a mass density (298.15 K, m1 = 0.02682) of 998.042 ± 0.089 kg/m3 and a mass density (298.15 K, m1 = 0.02766) of 998.073 ± 0.089 kg/m3. The mass density (298.15 K, m1 = 0.02813) was 998.09 ± 0.089 kg/m3, the mass density (298.15 K, m1 = 0.03302) was 998.264 ± 0.088 kg/m3 and the mass density (298.15 K, m1 = 0.0353) was 998.345 ± 0.088 kg/m3. For the same molecule, the mass density (308.15 K, m1 = 0.00616) was 994.295 ± 0.09 kg/m3, the mass density (308.15 K, m1 = 0.01095) was 994.473 ± 0.09 kg/m3 and the mass density (308.15 K, m1 = 0.01633) was 994.67 ± 0.09 kg/m3. It also gave a mass density (308.15 K, m1 = 0.01961) of 994.791 ± 0.09 kg/m3, a mass density (308.15 K, m1 = 0.02682) of 995.052 ± 0.09 kg/m3 and a mass density (308.15 K, m1 = 0.03302) of 995.271 ± 0.09 kg/m3. For the same molecule, the mass density (318.15 K, m1 = 0.00616) was 990.472 ± 0.092 kg/m3, the mass density (318.15 K, m1 = 0.01095) was 990.648 ± 0.092 kg/m3 and the mass density (318.15 K, m1 = 0.01633) was 990.845 ± 0.091 kg/m3. It also gave a mass density (318.15 K, m1 = 0.01961) of 990.964 ± 0.091 kg/m3, a mass density (318.15 K, m1 = 0.02682) of 991.228 ± 0.091 kg/m3 and a mass density (318.15 K, m1 = 0.03302) of 991.452 ± 0.091 kg/m3.
Cl.N=C(N)N [guanidine hydrochloride] + O showed a mass density (288.15 K, m1 = 0.1) of 1001.93 ± 0.089 kg/m3, a mass density (288.15 K, m1 = 0.25) of 1006.02 ± 0.091 kg/m3 and a mass density (288.15 K, m1 = 0.5) of 1012.56 ± 0.095 kg/m3. It also gave a mass density (288.15 K, m1 = 0.75) of 1018.77 ± 0.099 kg/m3, a mass density (288.15 K, m1 = 1) of 1024.63 ± 0.1 kg/m3 and a mass density (298.15 K, m1 = 0.1) of 999.788 ± 0.088 kg/m3. For the same molecule, the mass density (298.15 K, m1 = 0.25) was 1003.75 ± 0.09 kg/m3, the mass density (298.15 K, m1 = 0.5) was 1010.1 ± 0.094 kg/m3 and the mass density (298.15 K, m1 = 0.75) was 1016.1 ± 0.097 kg/m3. It also gave a mass density (298.15 K, m1 = 1) of 1021.79 ± 0.1 kg/m3, a mass density (308.15 K, m1 = 0.1) of 996.735 ± 0.089 kg/m3 and a mass density (308.15 K, m1 = 0.25) of 1000.63 ± 0.088 kg/m3. For the same molecule, the mass density (308.15 K, m1 = 0.5) was 1006.86 ± 0.092 kg/m3, the mass density (308.15 K, m1 = 0.75) was 1012.74 ± 0.095 kg/m3 and the mass density (308.15 K, m1 = 1) was 1018.36 ± 0.099 kg/m3. The mass density (318.15 K, m1 = 0.1) was 992.885 ± 0.091 kg/m3, the mass density (318.15 K, m1 = 0.25) was 996.736 ± 0.089 kg/m3 and the mass density (318.15 K, m1 = 0.5) was 1002.87 ± 0.089 kg/m3. It also gave a mass density (318.15 K, m1 = 0.75) of 1008.68 ± 0.093 kg/m3 and a mass density (318.15 K, m1 = 1) of 1014.2 ± 0.096 kg/m3.
With Cc1cn([C@H]2CC(O)[C@@H](CO)O2)c(=O)[nH]c1=O (stereo partly drawn) [thymidine] + O the mass density (288.15 K, m1 = 0.00963) was 999.851 ± 0.18 kg/m3, the mass density (288.15 K, m1 = 0.01114) was 999.964 ± 0.18 kg/m3 and the mass density (288.15 K, m1 = 0.01478) was 1000.24 ± 0.18 kg/m3. The mass density (288.15 K, m1 = 0.02291) was 1000.84 ± 0.18 kg/m3, the mass density (288.15 K, m1 = 0.02594) was 1001.06 ± 0.18 kg/m3 and the mass density (288.15 K, m1 = 0.0288) was 1001.27 ± 0.18 kg/m3. The mass density (298.15 K, m1 = 0.00963) was 997.759 ± 0.18 kg/m3, the mass density (298.15 K, m1 = 0.01114) was 997.871 ± 0.18 kg/m3 and the mass density (298.15 K, m1 = 0.01478) was 998.139 ± 0.18 kg/m3. For the same molecule, the mass density (298.15 K, m1 = 0.02291) was 998.733 ± 0.18 kg/m3, the mass density (298.15 K, m1 = 0.02594) was 998.954 ± 0.18 kg/m3 and the mass density (298.15 K, m1 = 0.0288) was 999.162 ± 0.18 kg/m3. It also gave a mass density (308.15 K, m1 = 0.00963) of 994.768 ± 0.18 kg/m3, a mass density (308.15 K, m1 = 0.01114) of 994.878 ± 0.18 kg/m3 and a mass density (308.15 K, m1 = 0.01478) of 995.142 ± 0.18 kg/m3. For the same molecule, the mass density (308.15 K, m1 = 0.02291) was 995.73 ± 0.18 kg/m3, the mass density (308.15 K, m1 = 0.02594) was 995.947 ± 0.18 kg/m3 and the mass density (308.15 K, m1 = 0.0288) was 996.152 ± 0.18 kg/m3. For the same molecule, the mass density (318.15 K, m1 = 0.00963) was 990.937 ± 0.18 kg/m3, the mass density (318.15 K, m1 = 0.01114) was 991.046 ± 0.18 kg/m3 and the mass density (318.15 K, m1 = 0.01478) was 991.306 ± 0.18 kg/m3. For the same molecule, the mass density (318.15 K, m1 = 0.02291) was 991.881 ± 0.18 kg/m3, the mass density (318.15 K, m1 = 0.02594) was 992.094 ± 0.18 kg/m3 and the mass density (318.15 K, m1 = 0.0288) was 992.294 ± 0.18 kg/m3.
Cc1c[nH]c(=O)[nH]c1=O [thymine] + O showed a mass density (288.15 K, m1 = 0.00771) of 999.423 ± 0.088 kg/m3, a mass density (288.15 K, m1 = 0.01299) of 999.622 ± 0.088 kg/m3 and a mass density (288.15 K, m1 = 0.01771) of 999.797 ± 0.088 kg/m3. It also gave a mass density (288.15 K, m1 = 0.02319) of 1000 ± 0.087 kg/m3, a mass density (288.15 K, m1 = 0.02665) of 1000.13 ± 0.088 kg/m3 and a mass density (288.15 K, m1 = 0.03315) of 1000.37 ± 0.088 kg/m3. The mass density (298.15 K, m1 = 0.00771) was 997.334 ± 0.089 kg/m3, the mass density (298.15 K, m1 = 0.01299) was 997.53 ± 0.089 kg/m3 and the mass density (298.15 K, m1 = 0.01771) was 997.704 ± 0.088 kg/m3. The mass density (298.15 K, m1 = 0.02319) was 997.906 ± 0.088 kg/m3, the mass density (298.15 K, m1 = 0.02665) was 998.033 ± 0.088 kg/m3 and the mass density (298.15 K, m1 = 0.03315) was 998.27 ± 0.088 kg/m3. The mass density (308.15 K, m1 = 0.00771) was 994.344 ± 0.09 kg/m3, the mass density (308.15 K, m1 = 0.01299) was 994.535 ± 0.09 kg/m3 and the mass density (308.15 K, m1 = 0.01771) was 994.705 ± 0.09 kg/m3. It also gave a mass density (308.15 K, m1 = 0.02319) of 994.901 ± 0.09 kg/m3, a mass density (308.15 K, m1 = 0.02665) of 995.023 ± 0.09 kg/m3 and a mass density (308.15 K, m1 = 0.03315) of 995.252 ± 0.09 kg/m3. The mass density (318.15 K, m1 = 0.00771) was 990.518 ± 0.092 kg/m3, the mass density (318.15 K, m1 = 0.01299) was 990.703 ± 0.092 kg/m3 and the mass density (318.15 K, m1 = 0.01771) was 990.867 ± 0.091 kg/m3. It also gave a mass density (318.15 K, m1 = 0.02319) of 991.055 ± 0.091 kg/m3, a mass density (318.15 K, m1 = 0.02665) of 991.172 ± 0.091 kg/m3 and a mass density (318.15 K, m1 = 0.03315) of 991.393 ± 0.091 kg/m3.
